# Measurements: PubChem BioAssay (NCI)
#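 Results reflect a 48-hour exposure of cells in 96-well plates to compound at five concentrations. At the TGI there is no net growth.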
# How the values were obtained:
# Assay in all cases: DTP human tumour cell line panel, 48 h
# [1] = tested on: MCF7 breast
# [2] = tested on: NCI-H226 lung
# [3] = tested on: OVCAR-5 ovarian
# [4] = tested on: OVCAR-8 ovarian
# [5] = tested on: SF-295 CNS
# [6] = tested on: SK-MEL-2 melanoma
# [7] = tested on: SK-OV-3 ovarian
# [8] = tested on: SN12C renal
# [9] = tested on: SNB-75 CNS
# [10] = tested on: HS 578T breast
SMILES,TGI [1],TGI [2],TGI [3],TGI [4],TGI [5],TGI [6],TGI [7],TGI [8],TGI [9],TGI [10]
Cc1ccc(N2C(=O)C3CSCN3C2=O)cc1 (stereo unspecified),> 100 µM,> 100 µM,> 100 µM,> 100 µM,> 100 µM,> 100 µM,> 100 µM,> 100 µM,> 100 µM,
CC(C)(C)OC(=O)C(C#N)C(=O)c1ccc(C(=O)O)[nH]1 (stereo unspecified),,> 100 µM,> 100 µM,> 100 µM,> 100 µM,68.5 µM,> 100 µM,> 100 µM,> 100 µM,
O=C1Nc2cccc(Cl)c2/C1=C\c1c(-c2ccccc2)nc2n1CCS2,39.1 µM,,48.2 µM,83.6 µM,> 100 µM,46.2 µM,65.9 µM,31.7 µM,66.8 µM,61.4 µM
COc1ccc(OC)c2c(C)ccnc12,> 100 µM,> 93.4 µM,> 100 µM,> 79.2 µM,95.3 µM,> 100 µM,> 100 µM,> 100 µM,> 100 µM,
c1ccc2c(Nc3ncco3)cccc2c1,> 10 µM,> 10 µM,> 10 µM,> 10 µM,> 10 µM,,> 10 µM,> 10 µM,> 10 µM,> 10 µM
CC(CCc1nc2ccccc2s1)(c1ccc(O)cc1)c1ccc(O)cc1,,41.1 µM,33.1 µM,39.6 µM,28.9 µM,31.4 µM,,33.6 µM,34 µM,52.9 µM
CCOC(=O)C1CCC(=O)N1C(=O)c1cccc(Cl)c1 (stereo unspecified),> 100 µM,> 100 µM,> 100 µM,> 100 µM,> 100 µM,,,> 100 µM,> 100 µM,> 100 µM
COc1ccc(/C=c2\[nH]c3nc(=O)c(N4CCCCC4)c(N)n3c2=O)cc1,> 100 µM,> 100 µM,> 100 µM,> 100 µM,> 100 µM,,> 100 µM,> 100 µM,78.7 µM,> 100 µM
O=c1c2ccccc2nc(N/N=C/c2ccc([N+](=O)[O-])cc2)n1-c1ccccc1,> 100 µM,> 100 µM,> 100 µM,> 100 µM,62.2 µM,,64.8 µM,> 100 µM,56.7 µM,68.1 µM
O=c1[nH]cc(N=Cc2cc(Cl)ccc2O)c(=O)[nH]1,> 100 µM,98 µM,> 100 µM,76.9 µM,42.1 µM,64.5 µM,59.4 µM,> 100 µM,,> 100 µM
Cc1ccc(-n2nncc2[Si](C)(C)C)s1,> 100 µM,> 100 µM,> 100 µM,> 100 µM,> 100 µM,> 100 µM,> 100 µM,> 100 µM,,> 100 µM
